Test results from patent US12371454B2, “Cyclic peptide compound having Kras inhibitory action” (priority 2019, dated 2025).
Positions of bridges follow the written chain, without caps; N, C: chain ends. Non-standard residues stand in square brackets, D forms with d. Residues, ends and D or L forms follow the SMILES beside them. *: point of attachment. hPhe(3-Cl-4-CF3) = N[C@@H](CCc1ccc(C(F)(F)F)c(Cl)c1)C(=O)O; NMePhe(3-CF3) = CN[C@@H](Cc1cccc(C(F)(F)F)c1)C(=O)O; hPhe(4-CF3) = N[C@@H](CCc1ccc(C(F)(F)F)cc1)C(=O)O; NMePhe(4-Cl) = CN[C@@H](Cc1ccc(Cl)cc1)C(=O)O; NMePhe(2-Cl) = CN[C@@H](Cc1ccccc1Cl)C(=O)O; Phe(3-Cl) = N[C@@H](Cc1cccc(Cl)c1)C(=O)O; Phe(3-Me) = Cc1cccc(C[C@H](N)C(=O)O)c1; Met(O2) = CS(=O)(=O)CC[C@H](N)C(=O)O; NMeAla(cPr) = CN[C@@H](CC1CC1)C(=O)O; NMeCha = CN[C@@H](CC1CCCCC1)C(=O)O; NMeChg = CN[C@H](C(=O)O)C1CCCCC1; NMeF = CN[C@@H](Cc1ccccc1)C(=O)O; NMeI = CC[C@H](C)[C@H](NC)C(=O)O; NMeD = CN[C@@H](CC(=O)O)C(=O)O; CH2CONHtBu = CC(C)(C)NC(=O)C*; NMeL = CN[C@@H](CC(C)C)C(=O)O; Oxazolidin(3-yl) = C1CN(*)CO1; NMeV = CN[C@H](C(=O)O)C(C)C; d(β3hA) = C[C@@H](N)CC(=O)O; NMeS = CN[C@@H](CO)C(=O)O; NMeA = CN[C@@H](C)C(=O)O; Piperidide = C1CCN(*)CC1; Pyrrolidide = C1CCN(*)C1; Ac5c = NC1(C(=O)O)CCCC1; Aze = O=C(O)[C@@H]1CCN1; NBuGly = CCCCNCC(=O)O; Aib = CC(C)(N)C(=O)O; Isopentyl = CC(C)CC*; Sar = CNCC(=O)O

These molecules were tested against T1, Kras and SOS1 (biotin-tagged human Kras loaded with GDP, His-tagged human SOS1) (Homo sapiens, UniProt P01116, G12D) (assay: Protein-protein interaction inhibition between Kras and SOS1 (KrasGl2D-SOS PPI) using AlphaScreen). Conditions: AlphaScreen; biotin-tagged human Kras loaded with GDP, His-tagged human SOS1; read-out: KRAS G12D-SOS PPI IC50.
T1 construct: made in house; host or cells: E. coli (stated for Kras only)
T1 sequence (P01116 1-188 isoform P01116-2 G12D): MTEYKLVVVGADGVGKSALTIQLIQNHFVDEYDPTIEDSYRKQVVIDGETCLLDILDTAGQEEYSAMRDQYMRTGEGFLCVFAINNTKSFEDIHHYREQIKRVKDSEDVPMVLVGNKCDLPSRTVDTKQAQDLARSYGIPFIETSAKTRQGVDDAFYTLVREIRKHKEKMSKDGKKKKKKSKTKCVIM
Format: binding
In short: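 Donor beads (nickel) hold His-SOS1; acceptor beads (streptavidin) hold biotin-Kras bound to GDP. Signal measured at 520-620 nm following 680 nm excitation.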

| Structure (SMILES) | IC50 |
| --- | --- |
| CC(C)C[C@H]1C(=O)N[C@@H](CCS(C)(=O)=O)C(=O)N(C)CC(=O)N(C)CC(=O)N(C)[C@@H](CC2CCCCC2)C(=O)N(C)CC(=O)N[C@@H](CCc2ccc(C(F)(F)F)c(Cl)c2)C(=O)N2CCC[C@H]2C(=O)NC2(CCCC2)C(=O)N(C)[C@@H](C2CCCCC2)C(=O)N(C)[C@H](C(=O)N2CCCCC2)CC(=O)N1C [Compound 283] ([NMeL][Met(O2)][Sar][Sar][NMeCha][Sar][hPhe(3-Cl-4-CF3)]P[Ac5c][NMeChg][NMeD]-Piperidide; lactam N-11) | 6.8 nM |
| CC[C@H](C)[C@@H]1NC(=O)[C@H](C)N(C)C(=O)C[C@@H](C(=O)N2CCCC2)N(C)C(=O)[C@H](C(C)C)N(C)C(=O)[C@@H](C)NC(=O)[C@H](Cc2ccccc2Cl)N(C)C(=O)[C@H](CCc2ccc(C(F)(F)F)c(Cl)c2)NC(=O)CN(C)C(=O)[C@H](CC2CCCCC2)N(C)C(=O)CN(C)C(=O)CN(C)C1=O [Compound 702] ([NMeA]I[Sar][Sar][NMeCha][Sar][hPhe(3-Cl-4-CF3)][NMePhe(2-Cl)][dA][NMeV][NMeD]-Pyrrolidide; lactam N-11) | 130 nM |
| CC[C@H](C)[C@@H]1NC(=O)[C@H](CC(C)C)N(C)C(=O)C[C@@H](C(=O)N2CCOC2)NC(=O)[C@H]([C@@H](C)CC)N(C)C(=O)C2(CCCC2)NC(=O)[C@@H]2CCCN2C(=O)[C@H](CCc2ccc(C(F)(F)F)c(Cl)c2)NC(=O)CN(C)C(=O)[C@H](CC2CCCCC2)N(C)C(=O)CN(C)C(=O)CN(C)C1=O [Compound 1247] ([NMeL]I[Sar][Sar][NMeCha][Sar][hPhe(3-Cl-4-CF3)]P[Ac5c][NMeI]D-{Oxazolidin(3-yl)}; lactam N-11) | 4.8 nM |
| CC[C@H](C)[C@@H]1NC(=O)[C@H](CC(C)C)N(C)C(=O)C[C@@H](C)NC(=O)[C@H](C(C)C)N(C)C(=O)C2(CCCC2)NC(=O)[C@@H]2CCCN2C(=O)[C@H](CCc2ccc(C(F)(F)F)c(Cl)c2)NC(=O)CN(C)C(=O)[C@H](Cc2cccc(C(F)(F)F)c2)N(C)C(=O)CN(C)C(=O)CN(C)C1=O [Compound 1575] (cyclo([Ac5c][NMeV][d(β3hA)][NMeL]I[Sar][Sar][NMePhe(3-CF3)][Sar][hPhe(3-Cl-4-CF3)]P)) | 45 nM |
| CC[C@H](C)[C@@H]1NC(=O)[C@H](CC(C)C)N(C)C(=O)C[C@@H](C(=O)N2CCCCC2)N(C)C(=O)[C@H](C(C)C)N(C)C(=O)C2(CCCC2)NC(=O)[C@@H]2CCCN2C(=O)[C@H](CCc2ccc(C(F)(F)F)c(Cl)c2)NC(=O)CN(C)C(=O)[C@H](CC2CCCCC2)N(C)C(=O)[C@@H]2CCN2C(=O)[C@H](CC2CC2)N(C)C1=O [Compound 1642] ([NMeL]I[NMeAla(cPr)][Aze][NMeCha][Sar][hPhe(3-Cl-4-CF3)]P[Ac5c][NMeV][NMeD]-Piperidide; lactam N-11) | 58 nM |
| CC[C@H](C)[C@@H]1NC(=O)[C@H](CC(C)C)N(C)C(=O)C[C@@H](C(=O)N2CCCCC2)N(C)C(=O)[C@H](CC(C)C)N(C)C(=O)C(C)(C)NC(=O)[C@H](COCC(=O)NC(C)(C)C)N(C)C(=O)[C@H](CCc2ccc(C(F)(F)F)cc2)NC(=O)CN(C)C(=O)[C@H](COCCC(C)C)N(C)C(=O)CN(C)C(=O)CN(C)C1=O [Compound 1502] ([NMeL]I[Sar][Sar][NMeS](Isopentyl)[Sar][hPhe(4-CF3)][NMeS](CH2CONHtBu)[Aib][NMeL][NMeD]-Piperidide; lactam N-11) | 24 nM |
| CCCCN1CC(=O)N(C)CC(=O)N(C)[C@@H](CC2CCCCC2)C(=O)N(C)CC(=O)N[C@@H](CCc2ccc(C(F)(F)F)c(Cl)c2)C(=O)N2CCC[C@H]2C(=O)NC2(CCCC2)C(=O)N(C)[C@@H](C(C)C)C(=O)N[C@H](C)CC(=O)N(C)[C@@H](CC(C)C)C(=O)N[C@@H]([C@@H](C)CC)C1=O [Compound 123] (cyclo([Ac5c][NMeV][d(β3hA)][NMeL]I[NBuGly][Sar][NMeCha][Sar][hPhe(3-Cl-4-CF3)]P)) | 170 nM |
| CC[C@H](C)[C@@H]1NC(=O)[C@H](C)N(C)C(=O)C[C@@H](C(=O)N2CCCC2)NC(=O)[C@H](C(C)C)N(C)C(=O)[C@H](Cc2ccccc2)N(C)C(=O)[C@H](Cc2cccc(C)c2)NC(=O)[C@H](Cc2cccc(Cl)c2)NC(=O)CN(C)C(=O)[C@H](Cc2ccc(Cl)cc2)N(C)C(=O)CN(C)C(=O)CN(C)C1=O [Compound 609] ([NMeA]I[Sar][Sar][NMePhe(4-Cl)][Sar][Phe(3-Cl)][Phe(3-Me)][NMeF][NMeV]D-Pyrrolidide; lactam N-11) | 110 nM |
| CC[C@H](C)[C@@H]1NC(=O)[C@H](C)N(C)C(=O)C[C@@H](C(=O)N2CCCC2)NC(=O)[C@H](CC(C)C)N(C)C(=O)[C@H](Cc2ccccc2)NC(=O)[C@H](CC(C)C)NC(=O)[C@H](CCc2ccc(C(F)(F)F)cc2)NC(=O)CN(C)C(=O)[C@H](Cc2ccc(Cl)cc2)N(C)C(=O)CN(C)C(=O)CN(C)C1=O [Compound 1085] ([NMeA]I[Sar][Sar][NMePhe(4-Cl)][Sar][hPhe(4-CF3)]LF[NMeL]D-Pyrrolidide; lactam N-11) | 50 nM |
